This note sets out measurements from US11198695B2, “Fused ring derivative having MGAT-2 inhibitory activity” (Shionogi & Co., Ltd., priority 2017, dated 2021).

Sequence of recombinant human MGAT2 (Q3SYC2 whole entry): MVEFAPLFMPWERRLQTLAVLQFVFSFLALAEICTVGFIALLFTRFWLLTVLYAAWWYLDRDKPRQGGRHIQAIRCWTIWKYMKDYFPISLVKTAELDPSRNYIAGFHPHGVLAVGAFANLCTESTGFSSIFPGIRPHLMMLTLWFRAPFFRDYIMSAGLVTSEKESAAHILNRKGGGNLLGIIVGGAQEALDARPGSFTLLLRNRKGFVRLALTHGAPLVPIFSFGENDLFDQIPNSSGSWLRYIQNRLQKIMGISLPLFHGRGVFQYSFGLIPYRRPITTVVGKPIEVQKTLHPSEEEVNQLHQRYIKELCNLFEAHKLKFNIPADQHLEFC

For the experiment, the target named is recombinant human MGAT2 (Homo sapiens (Human), UniProt Q3SYC2). In words: Measurement of human MGAT2 inhibitory activity. Format: biochemical. The note with it: read-out: IC50 (concentration exhibiting 50% enzyme inhibition), Table 53. The procedure, abridged:
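Membrane fraction of Sf9 cells expressing N-terminally Flag-tagged full-length human MGAT2, incubated 1 h at room temperature in 100 mmol/L phosphate pH 7.4 with 2 mmol/L DTT. The substrate solution held 30 μmol/L 2-oleoylglycerol and 10 μmol/L oleoyl-CoA. Diolein product was quantified by RapidFire ESI Q-TOF MS against diolein-d5 internal standard; % inhibition was set relative to with/without-enzyme controls.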
`CCOc1ccc2c(c1)CC[C@]21Cc2nn(-c3ccc(C)cn3)c(NC(=O)CS(C)(=O)=O)c2C(=O)N1` [II-159]: the IC50 amounted to 7.02 nM.

In the case of `Cc1ccc(-n2nc3c(c2NC(=O)CS(C)(=O)=O)C(=O)N[C@@]2(CCc4cc(OC(C)C)ccc42)C3)nc1` [II-160], the IC50 came to 7.69 nM.

In the case of `Cc1ccc(-n2nc3c(c2NC(=O)CS(C)(=O)=O)C(=O)N[C@@]2(CCc4cc(OCC(C)(C)F)ccc42)C3)nc1` [II-161], the IC50 amounted to 4.67 nM.

On to `Cc1ccc(-n2nc3c(c2NC(=O)CS(C)(=O)=O)C(=O)N[C@@](c2ccc(OCC(F)(F)F)cc2F)(C(F)(F)F)C3)nc1` [II-162], for which the IC50 amounted to 5.67 nM.

Turning to `CS(=O)(=O)CC(=O)Nc1c2c(nn1-c1ccc(C#N)cn1)C[C@]1(CCc3c1ccc(OCC(F)(F)F)c3F)NC2=O` [II-163], the IC50 was found to be 6.1 nM.

As to `Cc1ccc(-n2nc3c(c2NC(=O)CS(C)(=O)=O)C(=O)N[C@@]2(CCc4cc(Cl)ccc42)C3)nc1` [II-164], the IC50 was 7.55 nM.

In the case of `Cc1ccc(-n2nc3c(c2NC(=O)CS(C)(=O)=O)C(=O)N[C@@]2(CCc4ccccc42)C3)nc1` [II-165], the IC50 was determined as 26.9 nM.

As for `CS(=O)(=O)CC(=O)Nc1c2c(nn1CCC1CC1)C[C@]1(CCc3c1ccc(OCC(F)(F)F)c3F)NC2=O` [II-166], the IC50 came to 20.8 nM.

With `Cc1cc(-n2nc3c(c2NC(=O)CS(C)(=O)=O)C(=O)N[C@](C)(c2ccc(OCC(F)(F)F)cc2F)C3)no1` [II-167], the IC50 was 3.63 nM.

Turning to `Cc1cc(-n2nc3c(c2NC(=O)CS(C)(=O)=O)C(=O)N[C@@]2(CCc4cc(OCC(F)(F)F)ccc42)C3)on1` [II-169], the IC50 is 7.38 nM.

Consider `CNC(=O)c1c2c(nn1-c1ccc(C#N)cn1)C[C@]1(CCc3cc(OCC(F)(F)F)ccc31)NC2=O` [II-170], for which the IC50 came to 46.7 nM.

`Cc1ccc(-n2nc3c(c2C(=O)NCCS(N)(=O)=O)C(=O)N[C@@]2(CCc4cc(OCC(F)(F)F)ccc42)C3)nc1` [II-171]: the IC50 is 9.64 nM.

As to `CS(=O)(=O)CC(=O)Nc1c2c(nn1-c1ccc(C#N)cn1)C[C@]1(CCc3cc(C4CC4)ccc31)NC2=O` [II-172], the IC50 worked out at 1.46 nM.

Take `CS(=O)(=O)CC(=O)Nc1c2c(nn1CCCOC(F)F)C[C@]1(CCc3cc(OCC(F)(F)F)ccc31)NC2=O` [II-173]: the IC50 worked out at 1.34 nM.

On to `CS(=O)(=O)CC(=O)Nc1c2c(nn1-c1ccccc1)C[C@]1(CCc3cc(OCC(F)(F)F)ccc31)NC2=O` [II-175], for which the IC50 stood at 25.4 nM.

With `Cc1ccc(-n2nc3c(c2NC(=O)CS(C)(=O)=O)C(=O)N[C@](C)(c2ccc(Cl)cc2F)C3)nc1` [II-176], the IC50 worked out at 8.32 nM.

Turning to `Cc1ccc(-n2nc3c(c2NC(=O)CS(C)(=O)=O)C(=O)N[C@](C)(c2ccc(N4CC(F)(F)C4)cc2F)C3)nc1` [II-177], the IC50 was 5.86 nM.

For `N#Cc1ccc(-n2nc3c(c2C(=O)NCCF)C(=O)N[C@@]2(CCc4cc(OCC(F)(F)F)ccc42)C3)nc1` [II-178], the IC50 came to 59.7 nM.

For `N#Cc1ccc(-n2nc3c(c2C(=O)NCC2CC2)C(=O)N[C@@]2(CCc4cc(OCC(F)(F)F)ccc42)C3)nc1` [II-179], the IC50 was 10.1 nM.

Regarding `N#Cc1ccc(-n2nc3c(c2C(=O)NCCO)C(=O)N[C@@]2(CCc4cc(OCC(F)(F)F)ccc42)C3)nc1` [II-180], the IC50 came to 58.5 nM.

Consider `CNC(=O)CNC(=O)c1c2c(nn1-c1ccc(C#N)cn1)C[C@]1(CCc3cc(OCC(F)(F)F)ccc31)NC2=O` [II-181], for which the IC50 is 28.7 nM.

Turning to `CS(C)(=O)=NCCNC(=O)c1c2c(nn1-c1ccc(C#N)cn1)C[C@]1(CCc3cc(OCC(F)(F)F)ccc31)NC2=O` [II-182], the IC50 is 477 nM.

Regarding `N#CCCNC(=O)c1c2c(nn1-c1ccc(C#N)cn1)C[C@]1(CCc3cc(OCC(F)(F)F)ccc31)NC2=O` [II-183], the IC50 came to 35.5 nM.

Regarding `CC(F)(F)CNC(=O)c1c2c(nn1-c1ccc(C#N)cn1)C[C@]1(CCc3cc(OCC(F)(F)F)ccc31)NC2=O` [II-184], the IC50 stood at 4.06 nM.

Consider `N#Cc1ccc(-n2nc3c(c2C(=O)NCCSC(F)(F)F)C(=O)N[C@@]2(CCc4cc(OCC(F)(F)F)ccc42)C3)nc1` [II-185], for which the IC50 turned out to be 28.2 nM.

Regarding `CC1(CNC(=O)c2c3c(nn2-c2ccc(C#N)cn2)C[C@]2(CCc4cc(OCC(F)(F)F)ccc42)NC3=O)COC1` [II-186], the IC50 was 2.92 nM.

Regarding `N#Cc1ccc(-n2nc3c(c2C(=O)NCC2CCO2)C(=O)N[C@@]2(CCc4cc(OCC(F)(F)F)ccc42)C3)nc1` (some centres unmarked) [II-187], the IC50 came out at 24.5 nM.

As for `N#Cc1ccc(-n2nc3c(c2C(=O)NC2CC(F)(F)C2)C(=O)N[C@@]2(CCc4cc(OCC(F)(F)F)ccc42)C3)nc1` [II-188], the IC50 worked out at 5.01 nM.

With `N#Cc1ccc(-n2nc3c(c2C(=O)NC2CS(=O)(=O)C2)C(=O)N[C@@]2(CCc4cc(OCC(F)(F)F)ccc42)C3)nc1` [II-189], the IC50 was found to be 3.06 nM.

`N#Cc1ccc(-n2nc3c(c2C(=O)NCC2(C#N)CC2)C(=O)N[C@@]2(CCc4cc(OCC(F)(F)F)ccc42)C3)nc1` [II-190]: the IC50 is 6.35 nM.

As for `N#Cc1ccc(-n2nc3c(c2C(=O)NCC2(C(F)(F)F)CC2)C(=O)N[C@@]2(CCc4cc(OCC(F)(F)F)ccc42)C3)nc1` [II-191], the IC50 turned out to be 91.2 nM.

On to `N#Cc1ccc(-n2nc3c(c2C(=O)NCC2(C(F)F)CC2)C(=O)N[C@@]2(CCc4cc(OCC(F)(F)F)ccc42)C3)nc1` [II-192], for which the IC50 is 3.48 nM.

Regarding `CCO[C@H]1C[C@H](n2nc3c(c2NC(=O)CS(C)(=O)=O)C(=O)N[C@@]2(CCc4cc(OCC(F)(F)F)ccc42)C3)C1` [II-193], the IC50 is 33.7 nM.

As for `CS(=O)(=O)CC(=O)Nc1c2c(nn1CCCOC(F)F)C[C@@]1(CCc3cc(OCC(F)(F)F)ccc31)NC2=O` [II-194], the IC50 was 1.55 nM.

As for `Cc1ccc(-n2nc3c(c2C(=O)NCCC(F)(F)F)C(=O)N[C@@]2(CCc4cc(OCC(F)(F)F)ccc42)C3)nc1` [II-195], the IC50 came out at 29.8 nM.

Consider `Cc1ccc(-n2nc3c(c2C(=O)NCC(N)=O)C(=O)N[C@@]2(CCc4cc(OCC(F)(F)F)ccc42)C3)nc1` [II-196], for which the IC50 stood at 18.7 nM.

`Cc1ccc(-n2nc3c(c2C(=O)NCC#N)C(=O)N[C@@]2(CCc4cc(OCC(F)(F)F)ccc42)C3)nc1` [II-197]: the IC50 stood at 6.79 nM.

Turning to `Cc1ccc(-n2nc3c(c2C(=O)NCC2(CO)CC2)C(=O)N[C@@]2(CCc4cc(OCC(F)(F)F)ccc42)C3)nc1` [II-198], the IC50 amounted to 4.18 nM.

In the case of `Cc1ccc(-n2nc3c(c2C(=O)NCCS(C)(=O)=O)C(=O)N[C@@]2(CCc4cc(OCC(F)(F)F)ccc42)C3)nc1` [II-199], the IC50 was 73.6 nM.

Consider `Cc1ccc(-n2nc3c(c2C(=O)NCC2(O)CC2)C(=O)N[C@@]2(CCc4cc(OCC(F)(F)F)ccc42)C3)nc1` [II-200], for which the IC50 came out at 2.29 nM.

Consider `Cc1ccc(-n2nc3c(c2C(=O)NCCS(N)(=O)=O)C(=O)N[C@@]2(CCOc4cc(OCC(F)(F)F)ccc42)C3)nc1` [II-204], for which the IC50 came to 22.3 nM.

For `Cc1cc(-n2nc3c(c2NC(=O)CS(C)(=O)=O)C(=O)N[C@@]2(CCc4cc(OCC(F)(F)F)ccc42)C3)nn1C` [II-205], the IC50 was 3.78 nM.

With `Cc1ccc(-n2nc3c(c2NC(=O)CS(C)(=O)=O)C(=O)N[C@](C)(c2ccc(OCC(F)F)cc2F)C3)nc1` [II-206], the IC50 came to 5.72 nM.

As for `CCOc1ccc([C@]2(C)Cc3nn(-c4ccc(C)cn4)c(NC(=O)CS(C)(=O)=O)c3C(=O)N2)c(F)c1` [II-207], the IC50 came out at 5.86 nM.
